Details of series [1]: method as in PMID 23829932. The note with it: evaluated previously; cited from earlier work.
Series [2] has as its system porcine carboxylesterase. As to the kind of experiment: stability against carboxylesterase (Michaelis-Menten kinetics). The format is in vitro ADME. The note with it: porcine carboxylesterase 80 I.U., PBS pH 7.4, 37°C. On the procedure: The method used was slightly modified from Nics et al.. Incubations of different amounts (10, 30, 50, 70, 100, 200 μg/ml) of FE@SNAP were accomplished with a constant quantity of 80 International Units (I.U.) of porcine carboxylesterase under physiological conditions (PBS, pH 7.4, 37°C). The use of selected concentrations of FE@SNAP was based on an optimal choice to create Michaelis-Menten kinetics (MMK). 35 μl of the incubation-mixture were stopped after defined points in time (0, 60, 120, 180, and 240 min) by adding the same amount of ice-cold acetonitrile/methanol (10:1) and then vortexed. After centrifugation of the reaction mixtures (23.000 × g, 5 min), 20 μL of the obtained supernatant were analyzed by analytical HPLC (for conditions see Plasma Stability). The MMK of FE@SNAP was calculated by using GraphPad Prism software Version 5.0 (La Jolla, CA, USA).

A short description of series [3]: plasma stability in rat plasma. Type of series: in vitro ADME. Particulars: for degradation in rat plasma (in words): after 120 min. The protocol:
(§1) The stability of [^18F]FE@SNAP in human and rat plasma was determined according to Nics et al.. 1800 μL of lithium-heparinized plasma (rat and human, respectively) were pre-incubated under physiological conditions (PBS, pH 7.4, 37°C) in a shaking incubator for 5 minutes. 36 μL [^18F]FE@SNAP (corresponding to 2% ethanol v/v in the total volume) were added and the plasma vial was vortexed for at least 10 seconds. After defined points in time (0 and 120 min), 500 μL of the incubation-mixture were added to a preconditioned (with 5 mL methanol followed by 5 mL water) SPE-cartridge (Oasis). The cartridge was then eluted into a collection tube, washed with 5 mL of 5% methanol in water (v/v) into a second tube, and eluted with 3 mL of THF into a third tube. 20 μL of the eluate-solution of tube two and three were injected into the analytical HPLC (mobile phase: (water/acetic acid 97.5/2.5 v/v; 2.5 g/L ammonium acetate; pH 3.5)/acetonitrile 70/30 v/v; flow: 2mL/min).

Series [4] addresses T1, hMCHR2 (Homo sapiens, UniProt Q969V1).
T1 construct: purchased PerkinElmer; host or cells: CHO-K1 cell membranes (recombinant expression)
As to the kind of experiment: preliminary competition binding against [^125I]MCH on hMCHR2. The source says: [^18F]fluoride was produced via the ^18O(p,n)^18F reaction in a GE PET trace cyclotron (16.5-MeV protons; GE Medical Systems, Uppsala, Sweden). H2^18O (HYOX18; > 98%) was purchased from Rotem Europe (Leipzig, Germany). Typical beam currents were 48–52 μA and irradiation was stopped as soon as the desired activity level was reached (approx. 25–30 GBq). Anion-exchange cartridges (PS-HCO3) for [^18F]fluoride trapping were obtained from Macherey-Nagel (Dueren, Germany). The precursor compound (Tos@SNAP; 4, Fig. 1) and the reference standard (FE@SNAP) were synthesized in cooperation with the Department of Drug and Natural Product Synthesis of the University of Vienna (Austria). Solid phase extraction (SPE) cartridges SepPak® C18-plus and the Oasis HLB 6cc Vac (200 mg) were purchased from Waters (Waters® Associates, Milford, MA, USA). Sterile water Ecotainer® and 0.9% saline solution were purchased from B. Braun (Melsungen, Germany). 3% saline solution was obtained from a local pharmacy (Landesapotheke Salzburg, Austria). A 125 mM phosphate buffer was prepared by dissolving 0.224g sodium dihydrogen phosphate-monohydrate and 1.935g disodium hydrogen phosphate-dihydrate (both from Merck, Darmstadt, Germany) in 100 mL of sterile water. Phosphate-buffered saline (PBS) concentrate (10:1) was obtained from Morphisto (Frankfurt, Germany). […]

A short description of series [5]: plasma free fraction (centrifugal filter units). Type of series: in vitro ADME. Particulars: human plasma, n=3. The protocol:
The method used was modified from Parsey et al.. 1 mL of heparinized plasma (rat and human, respectively) were mixed with 10–50 μL [^18F]FE@SNAP. 200 μL aliquots were pipetted into the centrifugal filter units and the total radioactivity was measured in a Gamma Counter. After the centrifugation step (2.000 × g, 50 min), 50 μL of the obtained filtrate was back-measured for radioactivity. For the determination of the plasma free fraction (f1), the ratio of filtrate to total activity concentration was calculated.

The nature of series [6]: HPLC-based logD analysis. Type of series: physicochemical. The note with it: ODP-50 column, phosphate buffer pH 7.4, n=3. The protocol: LogD values were determined using an HPLC-based assay according to Donovan and Pescatore. A cocktail of two internal standards (toluene and triphenylene) with known logD and k′ values and FE@SNAP in methanol were injected into a short polymeric ODP-50 column. A linear gradient from 10% methanol/90% phosphate buffer (pH 7.4) to 100% methanol within 9.4 min at a flow rate of 1.5 mL/min was applied. Detection was performed at 260 nm and 285 nm.

In series [7] the target is human MCHR1 (hMCHR1). More on the design: method as in PMID 12118247. Particulars: Cos-7 cells expressing the human MCHR1; cited from earlier work.
On the set-up of series [8]: method as in PMID 10908045. The note with it: cited from earlier work.
Series [9] is described as follows: plasma stability in human plasma. The format is in vitro ADME. Particulars: 37°C, pH 7.4, n=6. The protocol:
as §1

The test system of series [10] is CYP450, rat liver microsomes. As to the kind of experiment: stability against liver microsomes (CYP450), rat. The format is in vitro ADME. The note with it: after 60 min, n=4. On the procedure:
(§2) The method used was described by Nics et al.. Briefly, liver microsomes (pooled from human or rat origin) were pre-incubated under physiological conditions (PBS, pH 7.4, 37°C) with a NADPH-generating system (solution-A: NADP+, glucose-6-phosphate and magnesium-chloride in H2O and solution-B: glucose-6-phosphate dehydrogenase in sodium citrate) for 5 min. 6 μL of [^18F]FE@SNAP, which correspond to 2% ethanol (v/v) in the total volume, were added. Enzymatic reactions were stopped after defined points in time (0, 2, 5, 10, 20, 40, and 60 min) by adding the same amount of ice-cold acetonitrile/methanol (10:1). The mixtures were vortexed, followed by a centrifugation step (23.000 × g, 5 min). Aliquots of the obtained supernatant were analyzed by an analytical HPLC (for conditions see Plasma Stability).

For series [11], the system named is CYP450, human liver microsomes. As to the kind of experiment: stability against liver microsomes (CYP450), human. Type of series: in vitro ADME. Particulars: after 60 min, n=4. The protocol:
as §2
(In general: Liver microsomes are vesicles of endoplasmic reticulum, rich in cytochrome P450 enzymes.)

For series [12], the target named is T2, hMCHR1 (Homo sapiens, UniProt Q99705).
T2 construct: purchased PerkinElmer; host or cells: CHO-K1 cell membranes (recombinant expression)
T2 sequence (Q99705 whole entry): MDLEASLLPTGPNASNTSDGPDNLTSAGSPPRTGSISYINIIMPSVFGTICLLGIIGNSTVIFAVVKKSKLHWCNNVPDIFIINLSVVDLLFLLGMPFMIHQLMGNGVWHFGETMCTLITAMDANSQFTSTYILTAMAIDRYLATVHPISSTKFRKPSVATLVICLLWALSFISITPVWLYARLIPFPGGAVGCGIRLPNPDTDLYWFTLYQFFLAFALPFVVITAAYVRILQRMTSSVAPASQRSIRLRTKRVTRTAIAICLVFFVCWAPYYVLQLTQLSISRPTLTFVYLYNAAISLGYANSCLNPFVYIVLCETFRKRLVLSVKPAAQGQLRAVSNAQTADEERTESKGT
Briefly: saturation binding of [^18F]FE@SNAP on CHO-K1 cell membranes expressing hMCHR1. Particulars: CHO-K1 membranes expressing hMCHR1, room temperature, 120 min, n=2. On the procedure:
The method used was conducted according to Mashiko et al. with minor modifications. CHO-K1 cell membranes expressing hMCHR1 (10 μg/mL) were dissolved in 500 μL and a 50 mM Tris buffer (pH 7.4) (containing 10 mM MgCl2, 2 mM EDTA, 0.1% bacitracin and 0.2% BSA). For the evaluation of the equilibrium dissociation constant (Kd) of [^18F]FE@SNAP, several concentrations (0–500 nM) of [^18F]FE@SNAP were added. The membranes were incubated in vials at room temperature for 120 min. Bound and free fractions of the radioligand were separated by centrifugation at 40.000 × g for 20 min. The supernatants were removed into new vials. The pellets were washed with 800 μL of the ice cold Tris buffer, which was added to the supernatant, and the pellets were dissolved in 1300 μL of the Tris buffer. The radioactivity in the vials was measured by a Gamma Counter. The Kd values were calculated by using GraphPad Prism software Version 5.0 (La Jolla, CA, USA).

Structures can show the parent of a compound that is named as a salt. Where two headings read alike, the source gives them in different places.

T1 sequence (Q969V1 whole entry): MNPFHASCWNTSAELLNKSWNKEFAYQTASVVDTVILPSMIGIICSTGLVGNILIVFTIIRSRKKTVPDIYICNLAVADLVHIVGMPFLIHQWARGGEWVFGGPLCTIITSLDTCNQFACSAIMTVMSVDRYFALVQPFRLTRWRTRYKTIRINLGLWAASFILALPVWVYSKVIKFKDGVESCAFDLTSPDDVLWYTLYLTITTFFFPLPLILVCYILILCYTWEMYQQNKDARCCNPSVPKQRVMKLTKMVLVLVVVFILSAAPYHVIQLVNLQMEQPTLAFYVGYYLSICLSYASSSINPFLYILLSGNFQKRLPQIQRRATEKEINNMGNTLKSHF

For the compound `COCC1=C(C(=O)O[11CH3])[C@H](c2ccc(F)c(F)c2)N(C(=O)NCCCN2CCC(c3cccc(NC(C)=O)c3)CC2)C(=O)N1` [[^11C]SNAP-7941], the “degradation in rat plasma (in words)” value in series [1] is “rapid enzymatic degradation”.

In general, Km refers to the substrate concentration at which the rate is half of its maximum. The term Ki denotes a dissociation constant, usually derived from enzyme kinetics or from competition with a known ligand. Read a high Ki as weaker binding. The logD is the decadic logarithm of the distribution of all forms, ionised or not, between an organic phase and buffer at a given pH. Lower therefore signals a more hydrophilic compound. For the compound `COCC1=C(C(=O)OCCF)C(c2ccc(F)c(F)c2)N(C(=O)NCCCN2CCC(c3cccc(NC(C)=O)c3)CC2)C(=O)N1` (stereo not drawn) [FE@SNAP], the “limiting velocity (Vmax)” value in series [2] was determined as 0.874 µM/min. Moreover, the Km in [2] (read-out: Michaelis-Menten constant (Km)) was determined as 347 µM. The “degradation in rat plasma (in words)” value in series [3] is listed as “complete”. Moreover, the Ki in series [4] was > 1000 nM. In addition, the “plasma free fraction (f1)” value in series [5] was determined as 12.6 ± 0.2%. In series [6], this compound yielded a logD of 3.83 ± 0.1.

The term Kd denotes the constant that tells how readily two partners part at equilibrium. Regarding `COCC1=C(C(=O)OC)[C@H](c2ccc(F)c(F)c2)N(C(=O)NCCCN2CCC(c3cccc(NC(C)=O)c3)CC2)C(=O)N1` [SNAP-7941, (+)-methyl (4S)-3-{[(3-{4-[3-(acetylamino)phenyl]-1-piperidinyl}propyl)amino]carbonyl}-4-(3,4-difluorophenyl)-6-(methoxymethyl)-2-oxo-1,2,3,4-tetrahydro-5-pyrimidinecarboxylate hydrochloride], in [7], the Kd was 0.18 nM.

Turning to `COc1ccccc1N1CCN(CCN(c2ccccn2)[11C](=O)C2CCCCC2)CC1` [[carbonyl-^11C]WAY-100635], the plasma free fraction in [8] is recorded as 5.8 ± 0.2%.

By chromatographic logD is commonly meant a lipophilicity value derived from retention on a column. Low values mean a more hydrophilic compound, high ones a more lipophilic compound. In the case of `COCC1=C(C(=O)OCC[18F])[C@H](c2ccc(F)c(F)c2)N(C(=O)NCCCN2CCC(c3cccc(NC(C)=O)c3)CC2)C(=O)N1` [[^18F]FE@SNAP], the figures for the “degradation in human plasma” value in [9] (after 0 min) and in series [9] (after 120 min) were 0.48 ± 0.5% and 3.87 ± 3.9%, respectively. Also, the “enzymatic degradation by CYP450” value amounted to 2.59 ± 1.8% in series [10] and 5.39 ± 1.6% in [11]. Further, the “degradation in rat plasma (in words)” value in [3] is on record as “completely metabolized”. For the same compound, the “degradation in rat plasma” value in series [3] (initially (0 min), 37°C, pH 7.4, n=11) is given as 32.44 ± 33.5%. Further, the fraction unbound in series [5] (heparinized plasma, read-out: plasma free fraction (f1)) was determined as 0.126 ± 0.002. Also, in series [12], the Kd was 2.9 nM. For the same compound, the chromatographic logD in series [6] (polymeric ODP-50 HPLC column) turned out to be 3.83.

These data come from publication PMC3791928, “Preparation and First Preclinical Evaluation of [^18F]FE@SNAP: A Potential PET Tracer for the Melanin-Concentrating Hormone Receptor-1 (MCHR1)” (Scientia Pharmaceutica, 2013).
